Source: ChEMBL document CHEMBL1201862, “PubChem BioAssay data set” (2004)
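These data come from cells grown in 96-well plates and exposed to compound for 48 hours at five concentrations. The concentration for 50% growth inhibition is given as GI50.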 The source made the active and inactive calls. No stated cut-off is given here; in the data, active = GI50 up to about 1.1 µM and inactive = higher.

What was measured:
Experiment in all cases: growth of human tumour cells (NCI), 48 h
HCT-116 = tested on: HCT-116
TK-10 = tested on: TK-10
HL-60 = tested on: HL-60
786-0 = tested on: 786-0
KM12 = tested on: KM12
OVCAR-4 = tested on: OVCAR-4
HCC 2998 = tested on: HCC 2998
OVCAR-8 = tested on: OVCAR-8
EKVX = tested on: EKVX
OVCAR-3 = tested on: OVCAR-3
OVCAR-5 = tested on: OVCAR-5
MOLT-4 = tested on: MOLT-4
SW-620 = tested on: SW-620
CAKI-1 = tested on: CAKI-1
COLO 205 = tested on: COLO 205
SNB-19 = tested on: SNB-19
A549 = tested on: A549
UO-31 = tested on: UO-31
Malme-3M = tested on: Malme-3M
HOP-62 = tested on: HOP-62

Measured: GI50

COc1cc(C/C=C/c2ccccc2)c(OC)cc1O [VIOLASTYRENE]
inactive: HCT-116 17.3 µM | TK-10 18.8 µM | HL-60 23.6 µM | 786-0 13.8 µM | KM12 17 µM | OVCAR-4 18 µM | HCC 2998 16.7 µM | OVCAR-8 12.6 µM | EKVX 18.1 µM | OVCAR-3 20.1 µM | OVCAR-5 24.7 µM | MOLT-4 18.6 µM | SW-620 20 µM | CAKI-1 26.2 µM | COLO 205 22.3 µM | SNB-19 30.5 µM | A549 43.9 µM | UO-31 16.8 µM | Malme-3M 22.6 µM

Cc1c(CCO)c(O)n2c(nc3ccccc32)c1C#N
inactive: HCT-116 41.3 µM | TK-10 > 100 µM | HL-60 10 µM | 786-0 66.4 µM | KM12 > 100 µM | OVCAR-4 39.4 µM | HOP-62 > 100 µM | HCC 2998 > 100 µM | OVCAR-8 83.9 µM | EKVX > 100 µM | OVCAR-3 92.5 µM | OVCAR-5 > 100 µM | SW-620 54.1 µM | CAKI-1 59 µM | COLO 205 > 100 µM | SNB-19 30.3 µM | A549 > 100 µM | UO-31 65.8 µM | Malme-3M > 100 µM

CCOC(=O)CCc1c(C)c2c(OC)cc(OC)cc2oc1=O
inactive: HCT-116 > 100 µM | TK-10 > 100 µM | HL-60 88.3 µM | 786-0 34.1 µM | KM12 > 100 µM | OVCAR-4 > 100 µM | HOP-62 > 100 µM | HCC 2998 > 100 µM | OVCAR-8 > 100 µM | EKVX 54.7 µM | OVCAR-3 > 100 µM | OVCAR-5 59.3 µM | SW-620 > 100 µM | CAKI-1 72.3 µM | COLO 205 > 100 µM | SNB-19 > 100 µM | A549 > 100 µM | UO-31 65.9 µM | Malme-3M 51.3 µM

CC(CN1CCN(CC(C)Nc2ccnc3cc(Cl)ccc23)CC1)Nc1ccnc2cc(Cl)ccc12 (stereo unspecified)
inactive: HCT-116 13.4 µM | TK-10 23.9 µM | HL-60 8.93 µM | 786-0 17.8 µM | KM12 13.4 µM | OVCAR-4 20.2 µM | HOP-62 22.5 µM | HCC 2998 16.6 µM | OVCAR-8 18.9 µM | EKVX 19 µM | OVCAR-3 22.8 µM | OVCAR-5 23.2 µM | MOLT-4 9.38 µM | CAKI-1 35.4 µM | COLO 205 14.4 µM | SNB-19 29 µM | A549 17.8 µM | UO-31 22.7 µM | Malme-3M 21.2 µM

O=C(Cc1nc2ccccc2s1)C(=O)Nc1cccc(C(F)(F)F)c1
inactive: HCT-116 > 100 µM | TK-10 > 100 µM | HL-60 > 100 µM | 786-0 > 100 µM | KM12 > 100 µM | OVCAR-4 > 100 µM | HOP-62 > 100 µM | HCC 2998 > 100 µM | OVCAR-8 > 100 µM | EKVX > 100 µM | OVCAR-3 > 100 µM | MOLT-4 > 100 µM | SW-620 > 100 µM | CAKI-1 > 100 µM | COLO 205 > 100 µM | SNB-19 > 100 µM | A549 > 100 µM | UO-31 > 100 µM | Malme-3M > 100 µM

N#CC(C#N)=Cc1ccc(Oc2ccccc2)cc1
inactive: HCT-116 20.6 µM | TK-10 55.5 µM | HL-60 23 µM | 786-0 18.2 µM | KM12 39.3 µM | HOP-62 65.8 µM | HCC 2998 97.5 µM | OVCAR-8 25.5 µM | EKVX > 100 µM | OVCAR-3 26.4 µM | OVCAR-5 > 100 µM | MOLT-4 28.6 µM | SW-620 32.4 µM | CAKI-1 43.8 µM | COLO 205 45.5 µM | SNB-19 37.3 µM | A549 > 100 µM | UO-31 25.9 µM | Malme-3M 21.7 µM

Cc1nc2ccc(F)cc2c2c1CCO2
inactive: HCT-116 68.1 µM | TK-10 > 100 µM | HL-60 24.5 µM | 786-0 > 100 µM | KM12 > 100 µM | OVCAR-4 > 100 µM | HCC 2998 79.1 µM | OVCAR-8 > 100 µM | EKVX 39.7 µM | OVCAR-5 > 100 µM | MOLT-4 > 100 µM | SW-620 > 100 µM | CAKI-1 15.2 µM | COLO 205 72.8 µM | SNB-19 > 100 µM | A549 > 100 µM | UO-31 92.3 µM | Malme-3M > 100 µM

CCCCCCCCCCCCCCCCCc1nc(Cl)nc(Cl)c1Cl
inactive: HCT-116 > 100 µM | TK-10 > 100 µM | HL-60 > 100 µM | 786-0 > 100 µM | KM12 > 100 µM | OVCAR-4 > 100 µM | HOP-62 > 100 µM | HCC 2998 > 100 µM | OVCAR-8 > 100 µM | OVCAR-3 > 100 µM | OVCAR-5 > 100 µM | MOLT-4 76.7 µM | SW-620 > 100 µM | CAKI-1 > 100 µM | COLO 205 > 100 µM | SNB-19 > 100 µM | A549 > 100 µM | UO-31 > 100 µM | Malme-3M > 100 µM
